According to patent US20260034192A1 (University of Saskatchewan, priority 2022, published 2026):
Values joined by “and” are separate entries in the source; they are usually repeats but may differ in a detail not shown here. Equal values may be shown once. “Also recorded” adds a separate entry of the source. Marks after values point to notes of the source that are not given here. Square brackets hold non-standard residues; d marks the D form. Peptide text beside a SMILES is read from it. dPhe(4-Cl) = N[C@H](Cc1ccc(Cl)cc1)C(=O)O; d2Nal = N[C@H](Cc1ccc2ccccc2c1)C(=O)O; dCit = NC(=O)NCCC[C@@H](N)C(=O)O; d3Pal = N[C@H](Cc1cccnc1)C(=O)O

Legend:
Assay type in all cases: in vivo, cattle
heifers = assay: Single 3 mg Cetrorelix injection on Day 1, 3 or 6 of wave in heifers (Example 5); settings: for Pregnant/AI: diagnosis 30 days after AI; for Ovulatory follicle size: in mm (unit assumed)
Protocol: Heifers on a random day of the cycle were treated with two i/m injections of prostaglandin analog and observed by transrectal ultrasonography for the day of ovulation (Defined as Day 0 of the wave). Heifers were then randomized into 4 groups (n=7 to 8 per group) and treated with normal saline (control group) or a single 3 mg i/m injection of cetrorelix on Day 1, Day 3 or Day 6 of the first follicular wave. […] Pregnancy diagnosis was done 30 days after artificial insemination.

[1] = system: pubertal Hereford-cross beef heifers; assay: Cetrorelix in luteal versus preovulatory phase, hCG ovulation challenge in heifers (Example 6); settings: high and low progesterone, 3 mg i/m
Protocol: Experimental design: The study was conducted on pubertal Hereford-cross beef heifers (n=24) at the U. Sask. Livestock and Forage Centre of Excellence (LFCE) using a 2×2 factorial design (Table 15). Initial transrectal ultrasonography was performed to confirm post-pubertal or post-partum cyclicity by the presence or absence of a corpus luteum (CL). Animals with a CL were weighed and treated with prostaglandin F2a analog as in Example 4 and monitored by ultrasonography to detect ovulation. Day of ovulation was considered the day of wave emergence (defined as Day 0).
On the day of ovulation, heifers were randomized into 4 groups. Those in the preovulatory groups were given prostaglandin on Days 4 and 4.5 of the wave while those in the luteal groups were allowed to maintain the CL (i.e., no prostaglandin treatment). Treatments was given as outlined in Table 16 and schematic time line FIG. 8. Cetrorelix groups were given 3 mg cetrorelix i/m on Day 5. All animals were treated with hCG (Chorulon, 1500 IU, im) on Day 7 of the wave (i.e., 48 hr after Cetrorelix/saline treatment) to determine the ovulatory potential of the dominant follicle.
Blood samples were taken 24 hr after cetrorelix or no treatment (control groups) for measurement of plasma concentrations of LH and progesterone. Data was analyzed in a similar manner to Example 4.

[2] = system: GnRH-induced plasma LH levels and ovulation; assay: GnRH challenge in heifers pre-treated with GnRH antagonists: plasma LH and ovulation (Example 10); settings: for Plasma LH response to GnRH challenge: heifers pre-treated with antagonist 60 minutes before GnRH injection
Protocol: Methods: Pubertal heifers (n=10) with a functional CL were selected at the Federal University of Santa Maria. Heifers were administered an intramuscular (i/m) injection of prostaglandin F2a analog (PGF; Lutalyse 5 ml or Estrumate 2 ml) to induce CL regression. Heifers were randomly placed into 4 treatment groups at the time of PGF injection: Trt1 (n=2, 3 mg of Abarelix); Trt2 (n=2, 3 mg of Degarelix), Trt3 (n=2, 3 mg of Relugolix) and Trt 4 (n=4; Cetrorelix 3 mg). Heifers were treated with these GnRH antagonists 1.5 days (36 hr) after the PGF injection and the GnRH antagonist treatment time point was defined as −60 mins. Heifers were treated with GnRH ([…] of Fertagyl i/m) at 0 mins to induce ovulation. Jugular venipuncture plasma samples were collected every 60 minutes for 3 hours (from −60 min to 120 minutes, with t=0 min when GnRH is administered). Plasma samples were kept at 4C overnight and LH analysis was performed the next day using a bovine-specific ELISA commercial kit. Transrectal ultrasonography was conducted to the time of GnRH injection (Time 0 hr) and 2 days later (48 hr after GnRH injection) to record the size of dominant follicle and to detect ovulation after treatment.

[3] = single 3 mg i/m on Day 1 (Cetro 1)
[4] = single 3 mg i/m on Day 3 (Cetro 3)
[5] = single 3 mg i/m on Day 6 (Cetro 6)
[6] = three cetrorelix groups combined
[7] = individual heifers, 3 mg antagonist 60 min before GnRH
[8] = individual heifers, after GnRH injection, 3 mg antagonist at −60 min

CC(=O)N[C@H](Cc1ccc2ccccc2c1)C(=O)N[C@H](Cc1ccc(Cl)cc1)C(=O)N[C@H](Cc1cccnc1)C(=O)N[C@@H](CO)C(=O)N[C@@H](Cc1ccc(O)cc1)C(=O)N[C@H](CCCNC(N)=O)C(=O)N[C@@H](CC(C)C)C(=O)N[C@@H](CCCNC(=N)N)C(=O)N1CCC[C@H]1C(=O)N[C@H](C)C(N)=O [Cetrorelix, N-acetyl-3-(2-naphthyl)-D-alanyl-4-chloro-D-phenylalanyl-3-(3-pyridyl)-D-alanyl-L-seryl-L-tyrosyl-D-citrullyl-L-leucyl-L-arginyl-L-prolyl-D-alaninamide] (Ac-[d2Nal][dPhe(4-Cl)][d3Pal]SY[dCit]LRP[dA]-NH2) was tested, and the “Wave emergence after the cetrorelix treatment irrespective of the phase of the dominant follicle” value (heifers; single 3 mg (about 7.5 ug/kg) i/m, groups combined) was “about 3.5±0.4 days”, the “Start of dominant follicle regression after cetrorelix treatment” value (heifers; single 3 mg i/m) was at most 2 days and the “Day of second wave emergence” value (heifers; [3]) was 4.4 ± 0.5^c. The “Days from second wave emergence to ovulation” value (shortened to “Days … to ovulation”) (heifers; [3]) was 10.0 ± 0.6^ab* Days, the “Pregnancy rate (Pregnant/AI, percent)” value (heifers; [3]) was “(62%)” and the “Treatment to wave emergence” value (heifers; [3]) was 3.4 ± 0.5 days. For the same molecule, the Pregnant/AI (heifers; [3]) was 5/8, the Ovulatory follicle size (heifers; [3]) was 14.4 ± 1.0 and the “Day of second wave emergence” value (heifers; [4]) was 7.0 ± 0.4^b. For the same molecule, the “Days … to ovulation” value (heifers; [4]) was 9.0 ± 0.4^ab Days, the “Pregnancy rate (Pregnant/AI, percent)” value (heifers; [4]) was “(66%)” and the “Treatment to wave emergence (days)” value (heifers; [4]) was 4.0 ± 0.4^ days. The Pregnant/AI (heifers; [4]) was 4/6, the Ovulatory follicle size (heifers; [4]) was 15.8 ± 0.6 and the “Day of second wave emergence” value (heifers; [5]) was 9.4 ± 0.5^a. The “Days … to ovulation” value (heifers; [5]) was 8.4 ± 0.4^b Days, the “Pregnancy rate (Pregnant/AI, percent)” value (heifers; [5]) was “(42%)” and the “Treatment to wave emergence” value (heifers; [5]) was 3.4 ± 0.5 days. For the same molecule, the Pregnant/AI (heifers; [5]) was 3/7, the Ovulatory follicle size (heifers; [5]) was 14.9 ± 0.3 and the “Overall pregnancy rate, percent” value (heifers; [6]) was 57%. The “Overall pregnancy rate, pregnant/AI” value (heifers; [6]) was 12/21, the “Time for which dominant/pre-ovulatory follicle maintains ovulatory potential after cetrorelix treatment” value [1] was “at least 48 hr” and the “Plasma LH response to GnRH challenge” value [2] was “did not register an increase in LH”. The “Plasma LH response to GnRH challenge” value ([2]; listed as cetrorelix) was “LH levels remained unchanged; also recorded: block the GnRH-induced LH release”, the “Ovulation (Yes/No) within 48 hr of GnRH treatment” value ([2]; heifers, 3 mg antagonist 60 min before GnRH) was “No” and the “Ovulation (Yes/No) within 48 hr of GnRH treatment” value ([2]; heifers, 3 mg antagonist 60 min before GnRH, listed as cetrorelix) was “prevent GnRH-induced ovulations”. The “Plasma LH concentration at 60 minute, group Mean” value ([2]; heifers, after GnRH injection) was 12.83 mIU/ml, the “Plasma LH concentration at 120 minute, group Mean” value ([2]; heifers, after GnRH injection) was 12.18 mIU/ml and the “Plasma LH concentration at −60 minute, group Mean” value ([2]; heifers, time of 3 mg GnRH antagonist injection) was 11.63 mIU/ml. For the same molecule, the “Plasma LH concentration at 0 minute, group Mean” value ([2]; heifers, time of GnRH injection) was 10.07 mIU/ml, the “Dominant follicle diameter (mm) 48 hr after GnRH Injection” value [2, 7] was 9.8 mm and 12 mm and the “Dominant follicle diameter (mm) at GnRH injection” value [2, 7] was 7.5 mm and 10.5 mm. The “Plasma LH concentration at 60 minute” value [2, 8] was 18.33 mIU/ml and 22.72 mIU/ml and 5.12 mIU/ml and 5.15 mIU/ml, the “Plasma LH concentration at 120 minute” value [2, 8] was 23.74 mIU/ml and 15.04 mIU/ml and 4.60 mIU/ml and 5.32 mIU/ml and the “Plasma LH concentration at −60 minute” value ([2]; individual heifers, time of 3 mg GnRH antagonist injection, 60 mins before GnRH) was 24.29 mIU/ml and 12.03 mIU/ml and 5.24 mIU/ml and 4.96 mIU/ml. For the same molecule, the “Plasma LH concentration at 0 minute” value ([2]; individual heifers, time of GnRH injection, 3 mg antagonist at −60 min) was 18.10 mIU/ml and 12.23 mIU/ml and 5.29 mIU/ml and 4.66 mIU/ml.
